In ChEMBL document CHEMBL1129909, “Potent non-peptidic dual inhibitors of endothelin-converting enzyme and neutral endopeptidase 24.11” (Bioorg Med Chem Lett, 1997):

The molecules below were run against T1, Endothelin-converting enzyme 1 (Homo sapiens, UniProt P42892) (assay: In vitro inhibition against recombinant human Endothelin converting enzyme 1 activity). Conditions: not given.
T1 sequence (P42892 whole entry): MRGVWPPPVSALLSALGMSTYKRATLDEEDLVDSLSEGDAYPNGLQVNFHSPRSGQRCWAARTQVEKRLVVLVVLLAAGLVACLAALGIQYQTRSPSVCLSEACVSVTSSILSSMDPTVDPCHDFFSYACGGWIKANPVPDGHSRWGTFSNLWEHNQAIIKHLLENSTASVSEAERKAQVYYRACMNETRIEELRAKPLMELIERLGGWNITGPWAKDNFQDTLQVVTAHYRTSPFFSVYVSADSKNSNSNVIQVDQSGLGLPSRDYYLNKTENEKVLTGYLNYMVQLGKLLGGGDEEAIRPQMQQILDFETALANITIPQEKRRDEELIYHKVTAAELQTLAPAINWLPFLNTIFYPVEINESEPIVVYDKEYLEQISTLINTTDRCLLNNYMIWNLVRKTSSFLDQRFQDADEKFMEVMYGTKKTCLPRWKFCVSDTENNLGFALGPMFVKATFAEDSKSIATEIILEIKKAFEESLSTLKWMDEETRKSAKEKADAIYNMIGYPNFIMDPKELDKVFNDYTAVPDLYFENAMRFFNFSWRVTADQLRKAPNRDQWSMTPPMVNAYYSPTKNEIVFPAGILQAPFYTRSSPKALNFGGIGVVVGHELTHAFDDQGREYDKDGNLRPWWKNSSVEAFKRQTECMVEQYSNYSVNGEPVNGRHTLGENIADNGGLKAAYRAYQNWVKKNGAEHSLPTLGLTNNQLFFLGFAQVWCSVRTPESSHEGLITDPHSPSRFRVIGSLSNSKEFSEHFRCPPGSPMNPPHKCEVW

O=P(O)(O)C(N[C@H](Cc1ccc(-c2ccccc2)cc1)c1nnn[nH]1)c1cccc2ccccc12 (some centres not stated) and O=P(O)(O)C(N[C@@H](Cc1ccc(-c2ccccc2)cc1)c1nnn[nH]1)c1cccc2ccccc12 (some centres not stated) cannot be ordered by IC50: greater than 1 µM for the first, greater than 1 µM for the second.

Compared with O=P(O)(O)C(Cc1cccc2c1OCO2)N[C@@H](Cc1ccc(-c2ccccc2)cc1)c1nnn[nH]1 (some centres not stated), O=P(O)(O)C(Cc1cccc2c1OCO2)N[C@H](Cc1ccc(-c2ccccc2)cc1)c1nnn[nH]1 (some centres not stated) is 10-fold higher in IC50: 0.11 µM for the first, 1.1 µM for the second. The first is the more potent here.

Compared with O=P(O)(O)C(Cc1ccc2c(c1)OCO2)N[C@@H](Cc1ccc(-c2ccccc2)cc1)c1nnn[nH]1 (some centres not stated), O=P(O)(O)C(Cc1ccc2c(c1)OCO2)N[C@H](Cc1ccc(-c2ccccc2)cc1)c1nnn[nH]1 (some centres not stated) is 4.2-fold higher in IC50: 0.093 µM for the first, 0.39 µM for the second. The first is the more potent here.

First: O=P(O)(O)C(Cc1cccc2ccccc12)N[C@H](Cc1ccc(-c2ccccc2)cc1)c1nnn[nH]1 (some centres not stated)
Second: O=P(O)(O)C(Cc1cccc2ccccc12)N[C@@H](Cc1ccc(-c2ccccc2)cc1)c1nnn[nH]1 (some centres not stated)
The IC50 of the first is 9.4-fold higher: 0.16 µM for the first, 0.017 µM for the second.

Going from O=P(O)(O)C(Cc1cccc2cccnc12)N[C@@H](Cc1ccc(-c2ccccc2)cc1)c1nnn[nH]1 (some centres not stated) to O=P(O)(O)C(Cc1cccc2cccnc12)N[C@H](Cc1ccc(-c2ccccc2)cc1)c1nnn[nH]1 (some centres not stated), the IC50 rises from 0.023 µM to greater than 1 µM.

Going from O=P(O)(O)CN[C@@H](Cc1ccc(-c2ccccc2)cc1)c1nnn[nH]1 to O=P(O)(O)C(Cc1ccccc1)N[C@H](Cc1ccc(-c2ccccc2)cc1)c1nnn[nH]1 (some centres not stated), the IC50 rises from 0.41 µM to 5 µM (12-fold). The first is the more potent here.

Going from O=C(O)CNC(=O)C(CS)Cc1ccccc1 (configuration not stated) [THIORPHAN] to O=P(O)(O)C(Cc1ccccc1)N[C@@H](Cc1ccc(-c2ccccc2)cc1)c1nnn[nH]1 (some centres not stated), the IC50 falls from greater than 100 µM to 0.28 µM.

Compared with O=P(O)(O)C(Cc1ccc2ccccc2c1)N[C@@H](Cc1ccc(-c2ccccc2)cc1)c1nnn[nH]1 (some centres not stated) [CGS-314447], O=P(O)(O)C(Cc1ccc2ccccc2c1)N[C@H](Cc1ccc(-c2ccccc2)cc1)c1nnn[nH]1 (some centres not stated) is 31-fold higher in IC50: 0.045 µM for the first, 1.4 µM for the second. The first is the more potent here.

The molecules below were run against T2, Endothelin-converting enzyme 1 (Homo sapiens) (UniProt P42892) (assay: In vitro inhibition to recombinant human endothelin converting enzyme). Conditions: concentration not given here.
T2 sequence (whole entry): T1 sequence (P42892 whole entry)
Set-up: concentration or dose not given beside the values

In order of rising inhibition:
1. O=P(O)(CCc1ccc2ccccc2c1)N[C@@H](Cc1ccc(-c2ccccc2)cc1)c1nnn[nH]1  0%
2. O=C(O)C[C@H](Cc1ccc(-c2ccccc2)cc1)NCP(=O)(O)O  0%
3. O=P(O)(O)CN[C@@H](CCc1ccccc1)c1nnn[nH]1  0%
4. O=P(O)(O)CN[C@H](Cc1ccc(-c2ccccc2)cc1)c1nnn[nH]1  0%
5. O=P(O)(O)CCC(Cc1ccc(-c2ccccc2)cc1)c1nnn[nH]1 (configuration not stated)  0%
6. O=P(O)(O)CN[C@@H](Cc1ccccc1)c1nnn[nH]1  0%
7. O=P(O)(O)CN[C@@H](Cc1ccc(-c2ccccc2)cc1)c1nc[nH]n1  0%
8. O=P(O)(O)CN[C@@H](Cc1ccc2ccccc2c1)c1nnn[nH]1  0%
9. O=P(O)(O)CC(Cc1ccc(-c2ccccc2)cc1)c1nnn[nH]1 (configuration not stated)  8%
10. O=C(O)CNC(=O)C(CS)Cc1ccccc1 (configuration not stated) [THIORPHAN]  9%
11. O=P(O)(O)CN[C@@H](Cc1c[nH]c2ccccc12)c1nnn[nH]1  10%
12. O=C(O)c1n[nH]c([C@H](Cc2ccc(-c3ccccc3)cc2)NCP(=O)(O)O)n1  14%
13. O=P(O)(O)C(N[C@@H](Cc1ccc(-c2ccccc2)cc1)c1nnn[nH]1)c1cccc2ccccc12 (some centres not stated)  14%
14. O=P(O)(O)C(Cc1ccccc1)N[C@H](Cc1ccc(-c2ccccc2)cc1)c1nnn[nH]1 (some centres not stated)  18%
15. O=C(O)[C@H](Cc1ccc(-c2ccccc2)cc1)NCP(=O)(O)O  20%
16. O=P(O)(O)C(Cc1cccc2cccnc12)N[C@H](Cc1ccc(-c2ccccc2)cc1)c1nnn[nH]1 (some centres not stated)  22%
17. SCC(Cc1ccc(-c2ccccc2)cc1)c1nnn[nH]1 (configuration not stated)  26%
18. CC(C)C[C@H](NP(=O)(O)O[C@@H]1O[C@@H](C)[C@H](O)[C@@H](O)[C@H]1O)C(=O)N[C@@H](Cc1c[nH]c2ccccc12)C(=O)O [PHOSPHORAMIDON]  47%
19. O=P(O)(O)C(Cc1ccc2ccccc2c1)N[C@H](Cc1ccc(-c2ccccc2)cc1)c1nnn[nH]1 (some centres not stated)  47%
20. O=P(O)(O)C(N[C@H](Cc1ccc(-c2ccccc2)cc1)c1nnn[nH]1)c1cccc2ccccc12 (some centres not stated)  49%
21. O=P(O)(O)C(Cc1cccc2c1OCO2)N[C@H](Cc1ccc(-c2ccccc2)cc1)c1nnn[nH]1 (some centres not stated)  50%
22. O=P(O)(O)C(Cc1ccc2c(c1)OCO2)N[C@H](Cc1ccc(-c2ccccc2)cc1)c1nnn[nH]1 (some centres not stated)  76%
23. O=P(O)(O)CN[C@@H](Cc1ccc(-c2ccccc2)cc1)c1nn[nH]n1  79%
24. O=P(O)(O)C(Cc1ccccc1)N[C@@H](Cc1ccc(-c2ccccc2)cc1)c1nnn[nH]1 (some centres not stated)  83%
25. O=P(O)(O)C(Cc1ccc2c(c1)OCO2)N[C@@H](Cc1ccc(-c2ccccc2)cc1)c1nnn[nH]1 (some centres not stated)  85%
26. O=P(O)(O)C(Cc1cccc2ccccc12)N[C@H](Cc1ccc(-c2ccccc2)cc1)c1nnn[nH]1 (some centres not stated)  85%
27. O=P(O)(O)C(Cc1cccc2c1OCO2)N[C@@H](Cc1ccc(-c2ccccc2)cc1)c1nnn[nH]1 (some centres not stated)  87%
28. O=P(O)(O)C(Cc1ccc2ccccc2c1)N[C@@H](Cc1ccc(-c2ccccc2)cc1)c1nnn[nH]1 (some centres not stated) [CGS-314447]  91%
29. O=P(O)(O)C(Cc1cccc2cccnc12)N[C@@H](Cc1ccc(-c2ccccc2)cc1)c1nnn[nH]1 (some centres not stated)  93%
30. O=P(O)(O)C(Cc1cccc2ccccc12)N[C@@H](Cc1ccc(-c2ccccc2)cc1)c1nnn[nH]1 (some centres not stated)  95%

The molecules below were run against Neprilysin (Homo sapiens, UniProt P08473). Conditions: not given.
Chain of Neprilysin (P08473 whole entry): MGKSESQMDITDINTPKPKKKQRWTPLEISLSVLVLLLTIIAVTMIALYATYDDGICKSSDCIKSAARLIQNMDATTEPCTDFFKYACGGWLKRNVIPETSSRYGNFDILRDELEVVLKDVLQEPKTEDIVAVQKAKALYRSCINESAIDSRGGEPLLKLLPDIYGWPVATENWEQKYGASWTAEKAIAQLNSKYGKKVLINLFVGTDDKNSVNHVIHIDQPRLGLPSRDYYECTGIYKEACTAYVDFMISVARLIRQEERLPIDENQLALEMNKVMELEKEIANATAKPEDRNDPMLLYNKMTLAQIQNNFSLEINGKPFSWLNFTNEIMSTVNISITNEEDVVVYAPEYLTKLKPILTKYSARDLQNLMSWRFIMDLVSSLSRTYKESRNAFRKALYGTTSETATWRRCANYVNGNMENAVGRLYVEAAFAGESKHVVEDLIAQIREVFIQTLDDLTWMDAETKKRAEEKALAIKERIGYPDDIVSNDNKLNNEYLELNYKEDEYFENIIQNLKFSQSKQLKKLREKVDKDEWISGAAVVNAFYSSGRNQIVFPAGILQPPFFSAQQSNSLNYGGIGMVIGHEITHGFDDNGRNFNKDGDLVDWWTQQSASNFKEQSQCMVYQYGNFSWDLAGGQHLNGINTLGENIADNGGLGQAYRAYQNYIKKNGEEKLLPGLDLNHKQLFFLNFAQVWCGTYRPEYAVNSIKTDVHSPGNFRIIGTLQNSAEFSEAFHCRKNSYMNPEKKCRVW

CC(C)C[C@H](NP(=O)(O)O[C@@H]1O[C@@H](C)[C@H](O)[C@@H](O)[C@H]1O)C(=O)N[C@@H](Cc1c[nH]c2ccccc12)C(=O)O [PHOSPHORAMIDON] showed an IC50 of 0.03 µM.
